Data as given in patent publication US20250084416A1, “TARGETING OF XKR8 IN THERAPIES” (University of Pittsburgh - Of the Commonwealth System of …, priority 2022, published 2025).

Assays:
[1] = tested on: luciferase in MC38-Luc cells; test: In vitro luciferase gene knockdown; type: cell-based, murine; conditions: 1 h pretreatment prior to siLUC NP transfection
HUVECa and CT26 cells = test: Transwell co-culture transcytosis (HUVECa upper, CT26 lower chamber); type: cell-based; conditions: endocytosis inhibitor
Method: To explore a potential role of transcytosis in tumor targeting, a co-culture experiment with HUVECa and CT26 cells using a Transwell plate was conducted.

mXkr8 mRNA = test: qRT-PCR of Xkr8 mRNA in cultured murine tumor cells (CT26, Panc02); type: cell-based; conditions: for Xkr8 mRNA expression: 24 h treatment
Method: (§1) To examine the effect of different chemotherapeutic agents on the expression level of Xkr8 mRNA, CT26, Panc02, PANC-1 or HT29 cells were treated with various concentrations of FuOXP, DOX or PTX. Twenty-four h later, cells were collected and subjected to qRT-PCR of mXkr8 or hXkr8 as detailed below.
(§2) To examine the impact of ActD treatment on the expression level of Xkr8 mRNA, CT26 or PANC-1 tumor cells were treated with FuOXP (10 μM) for 12 h followed by addition of ActD (2 μM). At 2 or 4 h following ActD treatment, cells were collected and subjected to qRT-PCR of Xkr8 mRNA as described below. In another study, cells were treated with NAC (2.5 mM) for 12 h followed by treatment with FuOXP, DOX or PTX for another 12 h. qRT-PCR of Xkr8 mRNA was then similarly performed.
(§3) Tumor tissues or cells collected from the above experiments were subjected to RNA extraction by TRIzol™. cDNA was generated from the purified RNA using QuantiTect Reverse Transcription Kit (Qiagen, MD, USA) according to the manufacturer's instructions. Quantitative real-time PCR was performed using SYBR Green Mix on a 7900 HT PCR instrument (Applied Biosystems, MA, USA). Relative target mRNA levels were analyzed using delta-delta-Ct calculations and normalized to GAPDH.

hXkr8 mRNA = test: qRT-PCR of Xkr8 mRNA in cultured human tumor cells (HT-29, PANC-1); type: cell-based; conditions: for Xkr8 mRNA expression: 24 h treatment
Method: as §1, §2, §3

CT26 tumor cells = test: Surface PS on CT26 tumor cells and EVs (Annexin V flow); type: cell-based, murine; conditions: CT26 tumor cells in vitro
Method: Effect of Xkr8 knockdown on the PS expression levels of tumor cells and EVs following FuOXP treatment: CT26 cancer cells were first treated with siXkr8 NPs for 72 h and then treated with FuOXP/siXkr8-coloaded NPs for another 24 h. EVs were isolated from culture medium using gradient ultra-centrifugation according to a previously established protocol^48. Briefly, culture medium was collected and centrifuged for 20 min at 1,800 RPM at 4° C. to clear dead cells and cell debris. The supernatant was then transferred to a polycarbonate ultracentrifuge tube and centrifuged at 9,000 RPM for 35 min at 4° C. to collect larger EVs. The supernatant was centrifuged again at 30,000 RPM for 80 min at 4° C. and the pellet was resuspended in 100 μL of PBS for smaller EVs collection. The levels of surface PS on tumor cells and EVs were analyzed by flow using BV421-labeled Annexin V. For detection of EVs by flow cytometry, electronic “Height” (-H) parameter rather than the “Area” (-A) parameter was used to allow optimal signal detection.

hXkr8 protein = test: Western blot of hXkr8 protein in HT29 and PANC-1 cells; type: cell-based, human; conditions: PANC-1 cells; NAC 12 h then drug 12 h
Method: Analysis of hXkr8 protein level by Western blot: Cultured HT29 or PANC-1 cells received similar treatments as described above. Cells were then lysed with RIPA lysis buffer (Thermo Fisher Scientific, MA, USA) by gently shaking on ice for 30 min. After centrifugation at 12,300 RPM for 10 min, the supernatants were collected, and the concentrations of proteins were measured using Pierce BCA Protein Assay Kit (ThermoFisher Scientific, MA, USA). The protein samples were denatured by boiling for 5 min and loaded onto 10% SDS-PAGE gel for electrophoresis. The proteins in the gels were subsequently transferred onto PVDF membranes (Bio-Rad, CA, USA). The membranes were then incubated in blocking buffer (5% non-fat dry milk in TBST) for 1 h at RT, followed by incubation with anti-hXkr8 polyclonal antibody (ThermoFisher Scientific, MA, USA) in antibody dilution buffer (5% BSA in TBST, 1/2000 dilution) with gentle agitation overnight at 4° C. After washing with TBST for three times, the membranes were subsequently incubated with the secondary HRP-linked goat anti-rabbit IgG antibody (Cell Signaling Technology, MA, USA) for 1 h at RT. After another three washes with TBST, the membranes were incubated with Pierce™ ECL Western Blotting Substrate (ThermoFisher Scientific, MA, USA) for 1 min. Protein expression was normalized against β-Tubulin expression.

N=C(N)NC(=O)c1nc(Cl)c(N)nc1N [amiloride]
efficiency of silence after inhibitor pretreatment [1]: drastically attenuated

C=C1[C@@H](C)[C@H]2[C@H](Cc3ccccc3)NC(=O)[C@]23[C@H](OC(C)=O)/C=C/[C@@](C)(O)C(=O)[C@@H](C)C/C=C/[C@H]3[C@@H]1O [cytochalasin D]
efficiency of silence after inhibitor pretreatment [1]: drastically attenuated

CCCCC[C@@H](O)[C@H]1C(=O)O[C@H](C)[C@@H](O)/C=C/C=C/C=C/C=C/C=C(\C)[C@@H](O)C[C@H](O)C[C@H](O)C[C@H](O)C[C@H](O)C[C@H](O)C[C@@H]1O [filipin]
efficiency of silence after inhibitor pretreatment [1]: drastically attenuated

O=C(N/N=C/c1ccc(O)c(O)c1)c1cc2ccccc2cc1O [dynasore]
efficiency of silence after inhibitor pretreatment [1]: drastically attenuated | effect on transcytosis-mediated transfection of CT26 cells (HUVECa and CT26 cells): significantly inhibited

CN(C)CCCN1c2ccccc2Sc2ccc(Cl)cc21 [chlorpromazine]
efficiency of silence after inhibitor pretreatment [1]: drastically attenuated

CC(=O)O[C@H]1C(=O)[C@@]2(C)[C@H]([C@H](OC(=O)c3ccccc3)[C@]3(O)C[C@H](OC(=O)[C@H](O)[C@@H](NC(=O)c4ccccc4)c4ccccc4)C(C)=C1C3(C)C)[C@]1(OC(C)=O)CO[C@@H]1C[C@@H]2O [PTX, paclitaxel]
Xkr8 mRNA expression (mXkr8 mRNA; CT26 cells): Induction | Xkr8 mRNA expression (mXkr8 mRNA; Panc02 cells): Induction | Xkr8 mRNA expression (hXkr8 mRNA; HT-29 cells): Induction | Xkr8 mRNA expression (hXkr8 mRNA; PANC-1 cells): Induction

siXkr8: Murine Xkr8 siRNA, Seq ID No 1 and 2, siRNA ID 164623 (chain 1 GGCACAAAUUUUAUGCCUG; chain 2 CAGGCAUAAAAUUUGUGCC; RNA, backbone not given here; further chemistry not fully specified; listed as Mus musculus)
level of surface PS (Annexin V+ cells) (CT26 tumor cells): almost abolished

COc1cccc2c1C(=O)c1c(O)c3c(c(O)c1C2=O)C[C@@](O)(C(=O)CO)C[C@@H]3O[C@H]1C[C@H](N)[C@H](O)[C@H](C)O1 [DOX, doxorubicin]
Xkr8 mRNA expression (mXkr8 mRNA; CT26 cells): Induction | Xkr8 mRNA expression (mXkr8 mRNA; Panc02 cells): Induction | Xkr8 mRNA expression (hXkr8 mRNA; HT-29 cells): Induction | Xkr8 mRNA expression (hXkr8 mRNA; PANC-1 cells): Induction

CC(=O)N[C@@H](CS)C(=O)O [NAC, N-acetylcysteine]
effect of pretreatment on Xkr8 protein induction by the 3 drugs (hXkr8 protein): partially attenuated | effect of pretreatment on Xkr8 mRNA induction by the 3 drugs (mXkr8 mRNA; CT26 cells, NAC 12 h then drug 12 h): partially attenuated | effect of pretreatment on Xkr8 mRNA induction by the 3 drugs (hXkr8 mRNA; PANC-1 cells, NAC 12 h then drug 12 h): partially attenuated
